Experiments:
[1] = tested on: galium (catchweed bedstraw, Galium aparine); assay: Test C preemergence; assay type: in vivo; details: Galium, pre-emergence, 336 h, scale 0 to 100, read-out: Plant response rating, Galium
Procedure, shortened: (§1)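 Visual ratings (0 none to 100 complete control) were made 13 to 15 days after treatment, relative to controls. Test chemicals, formulated in a non-phytotoxic solvent mixture with surfactant, were applied in the greenhouse preemergence to seeded loam-sand soil or postemergence to plants 2 to 18 cm tall.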

[2] = tested on: morningglory (Ipomoea coccinea); assay: Test C preemergence; assay type: in vivo; details: Ipomoea, pre-emergence, 336 h, scale 0 to 100, read-out: Plant response rating, Morningglory
Procedure, shortened: as §1

[3] = tested on: oilseed rape (Brassica napus); assay: Test C preemergence; assay type: in vivo; details: Brassica napus, pre-emergence, scale 0 to 100, read-out: Plant response rating, Oilseed Rape
Procedure, shortened: as §1

[4] = tested on: waterhemp (common waterhemp, Amaranthus rudis); assay: Test C preemergence; assay type: in vivo; details: Amaranthus tuberculatus, pre-emergence, scale 0 to 100, read-out: Plant response rating, Waterhemp
Procedure, shortened: as §1

[5] = tested on: Italian ryegrass (Lolium multiflorum); assay: Test C postemergence; assay type: in vivo; details: Lolium multiflorum, post-emergence, 336 h, Postemergence, scale 0 to 100, read-out: Plant response rating, Ryegrass, Italian
Procedure, shortened: as §1

[6] = tested on: barnyardgrass (Echinochloa crus-galli); assay: Test C postemergence; assay type: in vivo; details: Echinochloa crus-galli, post-emergence, Postemergence, scale 0 to 100, read-out: Plant response rating, Barnyardgrass
Procedure, shortened: as §1

[7] = tested on: blackgrass (Alopecurus myosuroides); assay: Test C postemergence; assay type: in vivo; details: Alopecurus myosuroides, post-emergence, 336 h, Postemergence, scale 0 to 100, read-out: Plant response rating, Blackgrass
Procedure, shortened: as §1

[8] = tested on: chickweed (common chickweed, Stellaria media); assay: Test C postemergence; assay type: in vivo; details: Stellaria media, post-emergence, Postemergence, scale 0 to 100, read-out: Plant response rating, Chickweed
Procedure, shortened: as §1

[9] = tested on: corn (Zea mays); assay: Test C postemergence; assay type: in vivo; details: Zea mays, post-emergence, 336 h, Postemergence, scale 0 to 100
Procedure, shortened: as §1

[10] = tested on: johnsongrass (Sorghum halepense); assay: Test C postemergence; assay type: in vivo; details: Sorghum halepense, post-emergence, 336 h, Postemergence, scale 0 to 100, read-out: Plant response rating, Johnsongrass
Procedure, shortened: as §1

[11] = tested on: kochia (Kochia scoparia); assay: Test C postemergence; assay type: in vivo; details: Bassia scoparia, post-emergence, Postemergence, scale 0 to 100, read-out: Plant response rating, Kochia
Procedure, shortened: as §1

[12] = tested on: lambsquarters (Chenopodium album); assay: Test C postemergence; assay type: in vivo; details: Chenopodium album, post-emergence, 336 h, Postemergence, scale 0 to 100, read-out: Plant response rating, Lambsquarters
Procedure, shortened: as §1

[13] = tested on: large (Lg) crabgrass (Digitaria sanguinalis); assay: Test C postemergence; assay type: in vivo; details: Digitaria sanguinalis, post-emergence, 336 h, Postemergence, scale 0 to 100, read-out: Plant response rating, Crabgrass, Large
Procedure, shortened: as §1

[14] = tested on: oilseed rape (Brassica napus); assay: Test C postemergence; assay type: in vivo; details: Brassica napus, post-emergence, Postemergence, scale 0 to 100, read-out: Plant response rating, Oilseed Rape
Procedure, shortened: as §1

[15] = tested on: pigweed (Amaranthus retroflexus); assay: Test C postemergence; assay type: in vivo; details: Amaranthus retroflexus, post-emergence, 336 h, Postemergence, scale 0 to 100, read-out: Plant response rating, Pigweed
Procedure, shortened: as §1

[16] = tested on: ragweed (common ragweed, Ambrosia elatior); assay: Test C postemergence; assay type: in vivo; details: Ambrosia artemisiifolia, post-emergence, 336 h, Postemergence, scale 0 to 100, read-out: Plant response rating, Ragweed
Procedure, shortened: as §1

[17] = tested on: soybean (Glycine max); assay: Test C postemergence; assay type: in vivo; details: Glycine max, post-emergence, Postemergence, scale 0 to 100, read-out: Plant response rating, Soybean
Procedure, shortened: as §1

[18] = tested on: velvetleaf (Abutilon theophrasti); assay: Test C postemergence; assay type: in vivo; details: Abutilon theophrasti, post-emergence, Postemergence, scale 0 to 100, read-out: Plant response rating, Velvetleaf
Procedure, shortened: as §1

[19] = tested on: waterhemp (common waterhemp, Amaranthus rudis); assay: Test C postemergence; assay type: in vivo; details: Amaranthus tuberculatus, post-emergence, Postemergence, scale 0 to 100, read-out: Plant response rating, Waterhemp
Procedure, shortened: as §1

[20] = tested on: wild oat (Avena fatua); assay: Test C postemergence; assay type: in vivo; details: Avena fatua, post-emergence, Postemergence, scale 0 to 100, read-out: Plant response rating, Oat, Wild
Procedure, shortened: as §1

[21] = tested on: winter wheat (Triticum aestivum); assay: Test C postemergence; assay type: in vivo; details: Triticum aestivum, post-emergence, 336 h, Postemergence, scale 0 to 100, read-out: Plant response rating, Wheat
Procedure, shortened: as §1

[22] = tested on: yellow nutsedge (Cyperus esculentus); assay: Test C postemergence; assay type: in vivo; details: Cyperus, post-emergence, 336 h, Postemergence, scale 0 to 100, read-out: Plant response rating, Nutsedge, Yellow
Procedure, shortened: as §1

Fc1ccc(F)c(Oc2ncc(Cl)cn2)c1Oc1ncc(Cl)cn1 [Compound 34, 2,2′-[(3,6-difluoro-1,2-phenylene)bis(oxy)]bis[5-chloropyrimidine]] showed a pest or weed control at 31 g/ha ([1]; 31 g ai/ha, preemergence) of 95%, a pest or weed control at 62 g/ha ([1]; 62 g ai/ha, preemergence) of 95% and a pest or weed control at 125 g/ha ([1]; 125 g ai/ha, preemergence) of 98%. It also gave a pest or weed control at 16 g/ha ([1]; Preemergence, 16 g ai/ha) of 90%, a pest or weed control at 31 g/ha ([2]; 31 g ai/ha, preemergence) of 20% and a pest or weed control at 62 g/ha ([2]; 62 g ai/ha, preemergence) of 60%. For the same molecule, the pest or weed control at 125 g/ha ([2]; 125 g ai/ha, preemergence) was 90%, the pest or weed control at 16 g/ha ([2]; Preemergence, 16 g ai/ha) was 0% and the plant injury at 31 g/ha ([3]; 31 g ai/ha, preemergence) was 90%. For the same molecule, the plant injury at 62 g/ha ([3]; 62 g ai/ha, preemergence) was 90%, the plant injury at 125 g/ha ([3]; 125 g ai/ha, preemergence) was 90% and the plant injury at 16 g/ha ([3]; Preemergence, 16 g ai/ha) was 30%. The pest or weed control at 31 g/ha ([4]; 31 g ai/ha, preemergence) was 100%, the pest or weed control at 62 g/ha ([4]; 62 g ai/ha, preemergence) was 100% and the pest or weed control at 125 g/ha ([4]; 125 g ai/ha, preemergence) was 100%. For the same molecule, the pest or weed control at 16 g/ha ([4]; Preemergence, 16 g ai/ha) was 100%, the pest or weed control at 31 g/ha ([5]; 31 g ai/ha) was 0% and the pest or weed control at 62 g/ha ([5]; 62 g ai/ha) was 0%. The pest or weed control at 125 g/ha ([5]; 125 g ai/ha) was 0%, the pest or weed control at 16 g/ha ([6]; 16 g ai/ha) was 5% and the pest or weed control at 31 g/ha ([6]; 31 g ai/ha) was 5%. It also gave a pest or weed control at 62 g/ha ([6]; 62 g ai/ha) of 10%, a pest or weed control at 125 g/ha ([6]; 125 g ai/ha) of 10% and a pest or weed control at 16 g/ha ([7]; 16 g ai/ha) of 0%. The pest or weed control at 31 g/ha ([7]; 31 g ai/ha) was 0%, the pest or weed control at 62 g/ha ([7]; 62 g ai/ha) was 0% and the pest or weed control at 125 g/ha ([7]; 125 g ai/ha) was 5%. The pest or weed control at 16 g/ha ([8]; 16 g ai/ha) was 50%, the pest or weed control at 31 g/ha ([8]; 31 g ai/ha) was 50% and the pest or weed control at 62 g/ha ([8]; 62 g ai/ha) was 80%. The pest or weed control at 125 g/ha ([8]; 125 g ai/ha) was 95%, the Corn plant response rating (crop injury, 0 = no effect, 100 = complete kill) at 16 g/ha ([9]; 16 g ai/ha) was 5% and the Corn plant response rating (crop injury, 0 = no effect, 100 = complete kill) at 31 g/ha ([9]; 31 g ai/ha) was 5%. The Corn plant response rating (crop injury, 0 = no effect, 100 = complete kill) at 62 g/ha ([9]; 62 g ai/ha) was 5%, the Corn plant response rating (crop injury, 0 = no effect, 100 = complete kill) at 125 g/ha ([9]; 125 g ai/ha) was 5% and the pest or weed control at 16 g/ha ([10]; 16 g ai/ha) was 5%. For the same molecule, the pest or weed control at 31 g/ha ([10]; 31 g ai/ha) was 5%, the pest or weed control at 62 g/ha ([10]; 62 g ai/ha) was 10% and the pest or weed control at 125 g/ha ([10]; 125 g ai/ha) was 10%. It also gave a pest or weed control at 16 g/ha ([11]; 16 g ai/ha) of 60%, a pest or weed control at 31 g/ha ([11]; 31 g ai/ha) of 60% and a pest or weed control at 62 g/ha ([11]; 62 g ai/ha) of 90%. The pest or weed control at 125 g/ha ([11]; 125 g ai/ha) was 90%, the pest or weed control at 16 g/ha ([12]; 16 g ai/ha) was 55% and the pest or weed control at 31 g/ha ([12]; 31 g ai/ha) was 75%. For the same molecule, the pest or weed control at 62 g/ha ([12]; 62 g ai/ha) was 70%, the pest or weed control at 125 g/ha ([12]; 125 g ai/ha) was 80% and the pest or weed control at 16 g/ha ([13]; 16 g ai/ha) was 0%. For the same molecule, the pest or weed control at 31 g/ha ([13]; 31 g ai/ha) was 0%, the pest or weed control at 62 g/ha ([13]; 62 g ai/ha) was 5% and the pest or weed control at 125 g/ha ([13]; 125 g ai/ha) was 5%. For the same molecule, the plant injury at 31 g/ha ([14]; 31 g ai/ha) was 50%, the plant injury at 62 g/ha ([14]; 62 g ai/ha) was 70% and the plant injury at 125 g/ha ([14]; 125 g ai/ha) was 70%. For the same molecule, the pest or weed control at 31 g/ha ([15]; 31 g ai/ha) was 80%, the pest or weed control at 62 g/ha ([15]; 62 g ai/ha) was 90% and the pest or weed control at 125 g/ha ([15]; 125 g ai/ha) was 90%. For the same molecule, the pest or weed control at 31 g/ha ([16]; 31 g ai/ha) was 50%, the pest or weed control at 62 g/ha ([16]; 62 g ai/ha) was 60% and the pest or weed control at 125 g/ha ([16]; 125 g ai/ha) was 60%. It also gave a plant injury at 31 g/ha ([17]; 31 g ai/ha) of 70%, a plant injury at 62 g/ha ([17]; 62 g ai/ha) of 85% and a plant injury at 125 g/ha ([17]; 125 g ai/ha) of 40%. It also gave a pest or weed control at 31 g/ha ([18]; 31 g ai/ha) of 60%, a pest or weed control at 62 g/ha ([18]; 62 g ai/ha) of 60% and a pest or weed control at 125 g/ha ([18]; 125 g ai/ha) of 65%. It also gave a pest or weed control at 31 g/ha ([19]; 31 g ai/ha) of 70%, a pest or weed control at 62 g/ha ([19]; 62 g ai/ha) of 80% and a pest or weed control at 125 g/ha ([19]; 125 g ai/ha) of 90%. It also gave a pest or weed control at 31 g/ha ([20]; 31 g ai/ha) of 0%, a pest or weed control at 62 g/ha ([20]; 62 g ai/ha) of 5% and a pest or weed control at 125 g/ha ([20]; 125 g ai/ha) of 10%. The plant injury at 31 g/ha ([21]; 31 g ai/ha) was 0%, the plant injury at 62 g/ha ([21]; 62 g ai/ha) was 0% and the plant injury at 125 g/ha ([21]; 125 g ai/ha) was 0%. For the same molecule, the pest or weed control at 31 g/ha ([22]; 31 g ai/ha) was 10%, the pest or weed control at 62 g/ha ([22]; 62 g ai/ha) was 10% and the pest or weed control at 125 g/ha ([22]; 125 g ai/ha) was 10%. For the same molecule, the melting point was 158 to 161 °C.

From patent US20170190671A1, “BIS(ARYL)CATECHOL DERIVATIVES AS HERBICIDES” (E I DU PONT DE NEMOURS AND COMPANY, priority 2014, published 2017)
